# Experimental data reported in patent publication US11382985B2, “Anti-tumour immune responses to modified self-epitopes” (Scancell Limited, priority 2015, dated 2022).
# Square brackets hold non-standard residues; d marks the D form. Ends that are not written are not given here. Cit = NC(=O)NCCC[C@H](N)C(=O)O
# Legend:
# splenocytes [1] = assay: Peptide immunisation and ex vivo Elispot, DR4 mice; format: in vivo, HLA-DR4 transgenic mouse
# Procedure: (§1) C57BL/6 mice (Charles River, UK), HLA-DR4 mice (Taconic, USA), HHDII/DR1 mice (Pasteur institute, France) and the HHD/HLA-DP4 transgenic strain of mouse as described in patent WO2013/017545 A1 (EMMA repository, France) were used, aged between 8 and 12 weeks, and cared for by the staff at Nottingham Trent University. All work was carried out under a Home Office project licence. Peptides were dissolved in PBS to 1 mg/ml and then emulsified (a series of dilutions) with different adjuvants: CpG and MPLA 6 μg/mouse of each (Invivogen, UK), Incomplete Freund's 50 μl/mouse (Sigma, UK), poly I:C 10 μg/mouse (Invivogen, UK), Imiquimod 25 μg/mouse (Invivogen, UK) and GMCSF 10 μg/mouse (Peprotech, UK). Peptides (25 μg/mouse) were injected subcutaneously at the base of the tail. DNA (1 μg/mouse) was coated onto 1.0 μm gold particles (BioRad, Hemel Hempstead, UK) using the manufacturer's instructions and administered intradermally by genegun (BioRad). Homspera (10 nM/mouse) (PeptideSynthetics, UK) was injected intradermally with genegun immunisation. Mice were immunized at either day 0 for peptide immunisation or days, 0 and 7 for genegun immunisation, unless otherwise stated. Spleens were removed for analysis at day 14 for peptide and day 20 for peptide or genegun immunisation unless stated otherwise.
# (§2) Elispot assays were performed using murine IFNγ, IL-17 and IL-10 capture and detection reagents according to the manufacturer's instructions (Mabtech, Sweden). In brief, anti-IFNγ, IL-17 and IL-10 antibodies were coated onto wells of 96-well Immobilin-P plate. Synthetic peptides (at a variety of concentrations) and 5×10^5 per well splenocytes were added to the wells of the plate in triplicate. Tumour target cells were added where relevant at 5×10^4/well in triplicate and plates incubated for 40 hrs at 37° C. After incubation, captured IFN and IL-10 were detected by biotinylated anti-IFNγ and IL-10 antibodies and developed with a streptavidin alkaline phosphatase and chromogenic substrate. Spots were analysed and counted using an automated plate reader (Cellular Technologies Ltd).
# splenocytes [2] = assay: Peptide immunisation and ex vivo Elispot, DP4 mice; format: in vivo, HHD/HLA-DP4 transgenic mouse
# Procedure: as §1, §2
# B16DP4 tumour = assay: B16DP4 melanoma tumour challenge; format: in vivo, DP4 transgenic mice; details: peptide immunisation after B16DP4 implant; unimmunized 10%
# Procedure: as §1, with “Homspera (10 nM/mouse) (PeptideSynthetics, UK) was injected intradermally with genegun immunisation. Mice were immunized at either day 0 for peptide immunisation or days, 0 and 7 for genegun immunisation, unless otherwise stated. Spleens were removed for analysis at day 14 for peptide and day 20 for peptide or genegun immunisation unless stated otherwise.” left out
# For tumour challenge experiments mice were challenged with 2.5×10^4 B16 DR4 cells or 1×10^6 LLC2/LLC2 DR4 cells, 2.5×10^5 Pan02 DR4 cells in matrigel or 4×10^5 B16 HHDII DP4 cells subcutaneously on the right flank 3 days prior to primary immunisation and then were immunised as above. Tumour growth was monitored at 3-4 days intervals and mice were humanely euthanized once tumour reached ≥10 mm in diameter.
# LLCDR4 tumour = assay: Lewis lung carcinoma LLC2 with constitutive DR4 (LLCDR4) challenge; format: in vivo, DR4 mice; details: challenge four days before peptide immunisation; all controls died by day 48
# Procedure: as §1, with “Mice were immunized at either day 0 for peptide immunisation or days, 0 and 7 for genegun immunisation, unless otherwise stated. Spleens were removed for analysis at day 14 for peptide and day 20 for peptide or genegun immunisation unless stated otherwise.” left out
# (§3) For tumour challenge experiments mice were challenged with 2.5×10^4 B16 DR4 cells or 1×10^6 LLC2/LLC2 DR4 cells, […] above. Tumour growth was monitored at 3-4 days intervals and mice were humanely euthanized once tumour reached ≥10 mm in diameter.
# parental LLC2 tumour = assay: Parental Lewis lung carcinoma LLC2 challenge; format: in vivo, DR4 mice; details: challenge four days before peptide immunisation
# Procedure: as §1, with “Mice were immunized at either day 0 for peptide immunisation or days, 0 and 7 for genegun immunisation, unless otherwise stated. Spleens were removed for analysis at day 14 for peptide and day 20 for peptide or genegun immunisation unless stated otherwise.” left out
# as §3
# Pan02 DR4 = Pan02 DR4 pancreatic tumour challenge; format: in vivo, DR4 transgenic mice; details: peptide immunisation 4 days after tumour challenge; none of unimmunized survived
# PBMCs [3] = assay: Luminex cytokine analysis of PBMC culture supernatants; format: cell-based, human
# Procedure: A three-step indirect procedure was used for the multiplexed Luminex assay (Invitrogen) for IgG antibodies to IL-10, IL-17, IFNy, TNFα, IL-2 & IL-4. Standard, control, and unknown sera were diluted 1:2 in 50% assay diluent buffer (Invitrogen) & 50% serum free RPMI. Serial standard dilutions were included in each assay. Each dilution of standard, control, and unknown sera was mixed with a set of coupled Luminex microspheres in 96-well filtration plates (Millipore Multiscreen; Millipore Corporation, Bedford, Mass.) and incubated for 2 hours at room temperature with shaking. Microspheres were collected by vacuum filtration and washed with PBST. Biotinylated detector antibody was added to each well for 1 hour at room temperature with shaking. Microspheres were collected by vacuum filtration and washed with PBST. Streptavidin conjugated R-phycoerythrin—was added to each well. Following a 30 minute incubation and a wash step, microspheres were resuspended in PBST, and read in a Biorad BioPlex Luminex analyzer equipped with an XY platform. Data acquisition and analysis performed with Luminex software (BioPlex Systems)
# PBMCs [4] = assay: CFSE proliferation assay on PBMCs; format: cell-based, human; details: Donor 4, day 10
# Procedure: PBMC were isolated from freshly drawn heparinised blood by Ficol-Hypaque (Sigma) gradient centrifugation. PBMC (1.5×10^6 cells/well) were stimulated with single peptides (final concentration 10 μg/ml) in RPMI containing 5% pooled autologous human serum, 2 mM glutamine, 20 mM HEPES and Penicillin-streptomycin (1%) in a final volume of 2 ml. As a negative control PBMC were incubated with medium alone. The PBMC were cultured at 37° C. in an atmosphere of 5% CO2 for 7 and 10 days. To assess proliferation at these times points cells were sampled and stained with surface marker CD4 and CD8 antibodies labelled with PE-Cy5 and efluor 450 respectively. After staining cells were fixed and analysed on a Milteny MACSQuant flow cytometer.
# splenocytes [5] = assay: Peptide immunisation and ex vivo Elispot, DP4 mice; format: in vivo, HHD/HLA-DP4 transgenic mouse; details: DP4 mice immunised with human 241-260cit
# [6] = DR4 mice immunised with human 241cit
# [7] = DR4 mice, single immunisation 25 μg human 241cit + CpG/MPLA
# [8] = DP4 mice immunised with human 241-260cit
substance,measurement,setting,value
VIGMDVAASEFF-CIT-SGKYDLD (VIGMDVAASEFF[Cit]SGKYDLD; listed as Homo sapiens) [Enolase 241cit],IFN response with GM-CSF,splenocytes [1]; 1 or 3 doses with 25 μg of peptide,Detectable responses
same,IFNγ response in CD4 depleted fraction,splenocytes [1]; [6],not
same,IFNγ response in CD4 enriched fraction,splenocytes [1]; [6],present
same,IFNγ response in presence of CD4 blocking antibody (GK1.5),splenocytes [1]; [6],significantly reduced
same,IL-10 production in response to peptide stimulation,"splenocytes [1]; DR4 mice immunised with human 241cit, ex vivo IL-10 ELISpot",No significant increase in IL-10 production
same,IFNγ response in presence of human MHC class II blocking antibody (L243),"splenocytes [1]; DR4 mice immunised with human 241cit, label = restimulating peptide",significantly reduced
same,IFNγ response with adjuvant CpG/MPLA,"splenocytes [1]; DR4 mice, single dose",detected
same,IFNγ response with adjuvant IFA,"splenocytes [1]; DR4 mice, single dose",no IFNγ response
same,IL-10 response with adjuvant CpG/MPLA,"splenocytes [1]; DR4 mice, single dose",not
same,IL-10 response with adjuvant IFA,"splenocytes [1]; DR4 mice, single dose",detected
same,IFNγ responses after 6 and 14 days compared to after 2 days,"splenocytes [1]; DR4 mice, single dose in CpG/MPLA",significantly increased
same,time after immunisation at which IFNγ response is detectable,"splenocytes [1]; DR4 mice, single dose in CpG/MPLA, sacrificed after 2, 6 or 14 days",6 days
same,IFNγ response to human citrullinated sequence compared to media,splenocytes [1]; [7],significant IFNγ response
same,IFNγ response to mouse citrullinated sequence compared to media,splenocytes [1]; [7],significant IFNγ response
same,immune response to human or mouse wild type (wt) sequence,splenocytes [1]; [7],neither
same,IFNγ response in combination with poly I:C,splenocytes [1]; DR4 transgenic mice,induces IFNγ responses
same,IL-10 response in combination with poly I:C,splenocytes [1]; DR4 transgenic mice,no IL-10
same,response in the absence of adjuvant,splenocytes [1]; peptide immunisation without adjuvant,no response
same,IFNγ response in presence of CD4 blocking antibody,splenocytes [2]; [8],blocked
same,IFNγ response in presence of CD8 blocking antibody,splenocytes [2]; [8],not
same,IFNγ response to shorter peptide spanning aa241-255,splenocytes [2]; [8],show cross reactivity
same,IL-10 in response to the cit peptide,splenocytes [2]; [8],no IL-10
same,IFNγ response compared to the wild type peptides,"splenocytes [2]; DP4 mice, three doses of human Enolase 241cit, label = restimulating peptide",increased IFNγ responses
same,IFNγ response in combination with imiquimod,splenocytes [2]; DP4 transgenic mice,induces IFNγ responses
same,IFNγ response in combination with poly I:C,splenocytes [2]; DP4 transgenic mice,induces IFNγ responses
same,IL-10 response in combination with poly I:C,splenocytes [2]; DP4 transgenic mice,no IL-10
same,survival rate after 60 days,B16DP4 tumour,70%
same,mice surviving to day 58,LLCDR4 tumour,40%
same,survival time versus unimmunised control,parental LLC2 tumour,small but significant increase in survival time
same,survival at day 60,Pan02 DR4,50%
same,"IL-17, Granzyme B and TNFα levels above media background",PBMCs [3]; Donor 4 supernatants,higher
same,IFNγ and IL-10 levels above media background,PBMCs [3]; Donor 4 supernatants at each time point,citrullinated peptide specific responses which increased over time
same,IFNγ response,PBMCs [3]; cultures on 3 donors,IFNγ responses
same,"IL-10, TNFα or IL-17 responses",PBMCs [3]; cultures on 3 donors,low level
same,IL-17 production by normal donors,PBMCs [3]; normal donors stimulated with peptide,no IL-17 was produced
same,lymphocytes that are CFSE^lowCD4^+,PBMCs [4],15%
same,granzyme B release in response to the cit peptide,splenocytes [5],show granzyme B release
